Assay results as given in PubChem BioAssay (NCI).
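Interpolation was linear, between the two tested concentrations surrounding the appropriate level; five concentrations were tested over 48 hours in 96-well plates. GI50: concentration for 50% inhibition of growth. TGI marks complete inhibition of growth.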

Assays:
Assay in all cases: growth of human tumour cells (NCI), 48 h
UACC-62 melanoma = system: UACC-62 melanoma
HL-60(TB) leukemia = system: HL-60(TB) leukemia
U251 CNS = system: U251 CNS
SNB-75 CNS = system: SNB-75 CNS
NCI-H23 lung = system: NCI-H23 lung
SF-539 CNS = system: SF-539 CNS
A498 renal = system: A498 renal
MOLT-4 leukemia = system: MOLT-4 leukemia
HCT-15 colon = system: HCT-15 colon
SK-MEL-5 melanoma = system: SK-MEL-5 melanoma
OVCAR-3 ovarian = system: OVCAR-3 ovarian
SW-620 colon = system: SW-620 colon
LOX IMVI melanoma = system: LOX IMVI melanoma
UACC-257 melanoma = system: UACC-257 melanoma
SR leukemia = system: SR leukemia
UO-31 renal = system: UO-31 renal
KM12 colon = system: KM12 colon
MDA-MB-231 breast = system: MDA-MB-231 breast
OVCAR-4 ovarian = system: OVCAR-4 ovarian
HOP-62 NSCLC = system: HOP-62 NSCLC
COLO 205 colon = system: COLO 205 colon
SK-OV-3 ovarian = system: SK-OV-3 ovarian
M14 melanoma = system: M14 melanoma
TK-10 renal = system: TK-10 renal
T-47D breast = system: T-47D breast
HT29 colon = system: HT29 colon
SK-MEL-2 melanoma = system: SK-MEL-2 melanoma
RXF 393 renal = system: RXF 393 renal
RPMI-8226 leukemia = system: RPMI-8226 leukemia
HCT-116 colon = system: HCT-116 colon
K-562 leukemia = system: K-562 leukemia
SF-268 CNS = system: SF-268 CNS
ACHN renal = system: ACHN renal
BT-549 breast = system: BT-549 breast
NCI-H460 lung = system: NCI-H460 lung
OVCAR-5 ovarian = system: OVCAR-5 ovarian
MALME-3M melanoma = system: MALME-3M melanoma
HCC-2998 colon = system: HCC-2998 colon
A549 NSCLC = system: A549 NSCLC
HS 578T breast = system: HS 578T breast
HOP-92 NSCLC = system: HOP-92 NSCLC
DU-145 prostate = system: DU-145 prostate
NCI-H226 lung = system: NCI-H226 lung
IGROV1 ovarian = system: IGROV1 ovarian
SNB-19 CNS = system: SNB-19 CNS
EKVX NSCLC = system: EKVX NSCLC
MDA-MB-435 = system: MDA-MB-435
OVCAR-8 ovarian = system: OVCAR-8 ovarian
CCRF-CEM leukemia = system: CCRF-CEM leukemia
SF-295 CNS = system: SF-295 CNS
CAKI-1 renal = system: CAKI-1 renal
MCF7 breast = system: MCF7 breast
NCI/ADR-RES ovarian = system: NCI/ADR-RES ovarian
SK-MEL-28 melanoma = system: SK-MEL-28 melanoma
NCI-H522 lung = system: NCI-H522 lung
786-0 renal = system: 786-0 renal
PC-3 prostate = system: PC-3 prostate
SN12C renal = system: SN12C renal

O=C(CC1(O)C(=O)N(Cc2ccccc2)c2ccc(Br)cc21)c1ccc(C(=O)NCC2CCC3(CC2)OOC2(CCCCC2)OO3)cc1 (stereo unspecified)
GI50 (UACC-62 melanoma): 11200 nM
TGI (UACC-62 melanoma): > 59000 nM
GI50 (HL-60(TB) leukemia): 330 nM
TGI (HL-60(TB) leukemia): 1120 nM
GI50 (U251 CNS): 301 nM
TGI (U251 CNS): 920 nM
GI50 (SNB-75 CNS): 1530 nM
TGI (SNB-75 CNS): 6020 nM
GI50 (NCI-H23 lung): 237 nM
TGI (NCI-H23 lung): 595 nM
GI50 (SF-539 CNS): 322 nM
TGI (SF-539 CNS): 988 nM
GI50 (A498 renal): 2220 nM
TGI (A498 renal): 6860 nM
GI50 (MOLT-4 leukemia): 1980 nM
TGI (MOLT-4 leukemia): 6540 nM
GI50 (HCT-15 colon): 1150 nM
TGI (HCT-15 colon): 4670 nM
GI50 (SK-MEL-5 melanoma): 3010 nM
TGI (SK-MEL-5 melanoma): 10000 nM
GI50 (OVCAR-3 ovarian): 435 nM
TGI (OVCAR-3 ovarian): 1520 nM
GI50 (SW-620 colon): 2890 nM
TGI (SW-620 colon): 10100 nM
GI50 (LOX IMVI melanoma): 152 nM
TGI (LOX IMVI melanoma): 304 nM
GI50 (UACC-257 melanoma): 16100 nM
TGI (UACC-257 melanoma): > 100000 nM
GI50 (SR leukemia): 216 nM
TGI (SR leukemia): 981 nM
GI50 (UO-31 renal): 187 nM
TGI (UO-31 renal): 363 nM
GI50 (KM12 colon): 435 nM
TGI (KM12 colon): 1700 nM
GI50 (MDA-MB-231 breast): 549 nM
TGI (MDA-MB-231 breast): 2030 nM
GI50 (OVCAR-4 ovarian): 3810 nM
TGI (OVCAR-4 ovarian): 16300 nM
GI50 (HOP-62 NSCLC): 237 nM
TGI (HOP-62 NSCLC): 619 nM
GI50 (COLO 205 colon): 2040 nM
TGI (COLO 205 colon): 5950 nM
GI50 (SK-OV-3 ovarian): 7260 nM
TGI (SK-OV-3 ovarian): > 24200 nM
GI50 (M14 melanoma): 4310 nM
TGI (M14 melanoma): 30600 nM
GI50 (TK-10 renal): 350 nM
TGI (TK-10 renal): 989 nM
GI50 (T-47D breast): 1300 nM
TGI (T-47D breast): 6280 nM
GI50 (HT29 colon): 615 nM
TGI (HT29 colon): 2060 nM
GI50 (SK-MEL-2 melanoma): 3690 nM
TGI (SK-MEL-2 melanoma): 13200 nM
GI50 (RXF 393 renal): 554 nM
TGI (RXF 393 renal): 1290 nM
GI50 (RPMI-8226 leukemia): 830 nM
TGI (RPMI-8226 leukemia): 3690 nM
GI50 (HCT-116 colon): 2080 nM
TGI (HCT-116 colon): 8180 nM
GI50 (K-562 leukemia): 1690 nM
TGI (K-562 leukemia): 8280 nM
GI50 (SF-268 CNS): 2030 nM
TGI (SF-268 CNS): 6740 nM
GI50 (ACHN renal): 239 nM
TGI (ACHN renal): 598 nM
GI50 (BT-549 breast): 3260 nM
TGI (BT-549 breast): 20100 nM
GI50 (NCI-H460 lung): 488 nM
TGI (NCI-H460 lung): 1660 nM
GI50 (OVCAR-5 ovarian): 1580 nM
TGI (OVCAR-5 ovarian): 15600 nM
GI50 (MALME-3M melanoma): 594 nM
TGI (MALME-3M melanoma): 2050 nM
GI50 (HCC-2998 colon): 2190 nM
TGI (HCC-2998 colon): 5100 nM
GI50 (A549 NSCLC): 224 nM
TGI (A549 NSCLC): 496 nM
GI50 (HS 578T breast): 2930 nM
TGI (HS 578T breast): 15900 nM
GI50 (HOP-92 NSCLC): 213 nM
TGI (HOP-92 NSCLC): 468 nM
GI50 (DU-145 prostate): 191 nM
TGI (DU-145 prostate): 354 nM
GI50 (NCI-H226 lung): 5060 nM
TGI (NCI-H226 lung): 19300 nM
GI50 (IGROV1 ovarian): 278 nM
TGI (IGROV1 ovarian): 799 nM
GI50 (SNB-19 CNS): 8130 nM
TGI (SNB-19 CNS): > 100000 nM
GI50 (EKVX NSCLC): 437 nM
TGI (EKVX NSCLC): 1590 nM
GI50 (MDA-MB-435): 647 nM
TGI (MDA-MB-435): 1930 nM
GI50 (OVCAR-8 ovarian): 285 nM
TGI (OVCAR-8 ovarian): 1010 nM
GI50 (CCRF-CEM leukemia): 350 nM
TGI (CCRF-CEM leukemia): 1110 nM
GI50 (SF-295 CNS): 794 nM
TGI (SF-295 CNS): 2460 nM
GI50 (CAKI-1 renal): 557 nM
TGI (CAKI-1 renal): 1060 nM
GI50 (MCF7 breast): 2650 nM
TGI (MCF7 breast): > 87900 nM
GI50 (NCI/ADR-RES ovarian): 583 nM
TGI (NCI/ADR-RES ovarian): 1810 nM
GI50 (SK-MEL-28 melanoma): 17000 nM
TGI (SK-MEL-28 melanoma): > 100000 nM
GI50 (NCI-H522 lung): 214 nM
TGI (NCI-H522 lung): 556 nM
GI50 (786-0 renal): 173 nM
TGI (786-0 renal): 334 nM
GI50 (PC-3 prostate): 1730 nM
TGI (PC-3 prostate): 12500 nM
GI50 (SN12C renal): 1160 nM
TGI (SN12C renal): 3180 nM
